According to patent US12036195B2, “Co-crystals of NURR1-lbd in complex with a cyclopentenone prostaglandin and modulators of NURR1” (Nanyang Technological University, priority 2016, dated 2024):

What was measured:
Nurr1 [1] = molecular target: T1, Nurr1 (Homo sapiens, UniProt P43354); settings: high throughput screening of >340,000 compounds; cited from earlier work
Nurr1-LBD [2] = molecular target: T2, Nurr1-LBD (Homo sapiens, UniProt P43354); test: 2D 1H-15N HSQC NMR chemical shift perturbation on Nurr1-LBD; assay type: binding; settings: 15N-labeled Nurr1-LBD, 1:10 molar ratio protein:ligand; residues in helix 11 and 12 perturbed
T2 construct: The human Nurr1-LBD construct coding for residues 328-598 (hNurr1-LBD) was cloned into pETSUMO expression vector; SUMO tag (pETSUMO vector, purified on Ni2+-NTA) (cleaved yes); made in house; host or cells: E. coli BL21 (DE3)
Procedure: 0.2 mM uniformly ^15-N labeled Nurr1-LBD protein was prepared in 20 mM sodium phosphate buffer containing 50 mM NaCl, 0.01% NaN3 (pH 7.5) in 90% H2O/10% D2O. The interaction between Nurr1-LBD and PGA1/PGA2 (in DMSO vehicle) was examined using two dimensional HSQC comparing free protein sample with 1:10 molar ratio of Nurr1-LBD:PGA1/PGA2. The backbone resonance and sequence specific resonance assignments were previously assigned for Nurr1-LBD as reported (Kim, et. al. Proc Nat Acad Sci 112, 8756-8761 (2015)). The binding sites of PGA1/PGA2 were mapped on the crystal structure of Nurr1-LBD (PDB code: 1OVL) after determining the chemical shift perturbations following the addition of PGA1/PGA2 against the spectrum of the free protein. Bruker Avance II 700 MHz spectrometer fitted with a 5 mm triple resonance, z-axis-gradient cryoprobe at 298K was used for all NMR experiments. All spectra were processed directly to SPARKY format in UNIX and analyzed using the SPARKY 3.114 program (Goddard and Kneller, SPARKY In, 3.114 Edition: Univ of Calif (2002)).
Prostaglandins are a family of biologically potent lipids from membrane phospholipids; comprised of a C20-unsaturated fatty acid containing a cyclopentenone ring. […]

Nurr1-LBD [3] = molecular target: T2, Nurr1-LBD; test: Top-down mass spectrometry of covalent coupling to Nurr1-LBD; assay type: binding; settings: overnight incubation at 1:1.5 molar ratio
Procedure: Nurr1-LBD at ˜300 μM prepared in 0.1% FA in water was analyzed using a Dionex UltiMate 3000 UHPLC coupled to a linear quadrupole ion trap-Fourier transform Ultra apparatus (LTQ-FT Ultra, Thermo Scientific Inc.). Protein solution (5 μL) was injected directly into the detector carried by 0.1% FA in water at 500 μL/min. On-line ionization was performed using a Michrom CaptiveSpray ion source (Bruker-Michrom Inc., Auburn, USA) at an electrospray potential of 1.5 kV and capillary temperature of 200° C. Data acquisition was conducted in profile and positive mode (600-1600 m/z range). Mass spectrometry (MS) data was acquired for 60 min in the FT-ICR cell at a resolution of 100,000 (at 400 m/z) and maximum injection time of 500 msec using Xcalibur version 2.0 SR2 (Thermo Scientific Inc., Bremen, Germany). The automatic gain control target for FT-ICR was set to 5.0e+05. For each scan 100 microscans were averaged. […]
To exclude the possibility that the covalent coupling of PGA1/PGA2 to human Nurr1-LBD domain seen in the crystal structures was an artifact of crystallization or exposure to high-intensity X-rays, Nurr1-LBD at ˜ 300 μM prepared in 0.1% FA in water was analyzed using a Dionex UltiMate 3000 UHPLC coupled to a linear quadrupole ion trap-Fourier transform Ultra apparatus (LTQ-FT Ultra, Thermo Scientific Inc.). […]

LRRK2 G2019S Drosophila = test: Climbing assay and survival in LRRK2 G2019S Drosophila; assay type: in vivo, Drosophila melanogaster
Procedure: FIG. 4. Mitigation of locomotor deficits and mortality in LRRK2 G2019S Drosophila by CyPGs. Drosophila melanogaster expressing LRRK2 G2019S mutation driven by ddc-Gal4 result in late-onset PD in these flies. Treatment with 50 μM PGA2 was able to improve their climbing ability from 9.7% to 36.4% when compared to age-matched mutant flies (0.5% EtOH drug vehicle). Survival rate was determined by counting the number of flies that survived every 2-3 days for 55 days post-eclosion. Flies were treated with cornmeal-agar medium containing 50 μM PGA2 for 25 days at day 30 post-eclosion and climbing assay was carried out on day 55. The number of flies that climbed beyond a median line in a vertical column (length 25 cm; diameter 1.5 cm) were counted after one minute for an average of six times. Results represent mean±SEM of climbing scores from three independent experiments. Student's t-test (unpaired) was conducted to determine statistical significance between G2019S (vehicle treated) and PGA2-treated mutant flies: *p<0.05.
Flies expressing Leucine-rich repeat kinase 2 (LRRK2) with G2019S mutation driven by dopa decarboxylase (ddc)-Gal4 leads to late-onset PD in these flies (Liu, et al. Proc Natl Acad Sci USA 105, 2693-2698, doi:10.1073/pnas.0708452105 (2008)). […]

HL60 cells = settings: direct interaction with mitochondria; cited from earlier work
Nurr1 [4] = molecular target: T1, Nurr1; settings: binding with Nurr1-LBD at its non-canonical ligand-binding site; cited from earlier work

T2 sequence (P43354 328-598): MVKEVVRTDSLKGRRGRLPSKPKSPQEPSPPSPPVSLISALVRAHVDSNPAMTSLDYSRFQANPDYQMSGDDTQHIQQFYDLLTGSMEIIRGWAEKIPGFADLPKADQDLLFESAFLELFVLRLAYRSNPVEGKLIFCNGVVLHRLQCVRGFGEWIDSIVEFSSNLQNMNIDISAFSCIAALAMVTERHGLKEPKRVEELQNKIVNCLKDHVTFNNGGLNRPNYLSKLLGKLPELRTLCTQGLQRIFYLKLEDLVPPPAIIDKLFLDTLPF
T1 sequence (P43354 whole entry, species assumed, the tested form may be a part): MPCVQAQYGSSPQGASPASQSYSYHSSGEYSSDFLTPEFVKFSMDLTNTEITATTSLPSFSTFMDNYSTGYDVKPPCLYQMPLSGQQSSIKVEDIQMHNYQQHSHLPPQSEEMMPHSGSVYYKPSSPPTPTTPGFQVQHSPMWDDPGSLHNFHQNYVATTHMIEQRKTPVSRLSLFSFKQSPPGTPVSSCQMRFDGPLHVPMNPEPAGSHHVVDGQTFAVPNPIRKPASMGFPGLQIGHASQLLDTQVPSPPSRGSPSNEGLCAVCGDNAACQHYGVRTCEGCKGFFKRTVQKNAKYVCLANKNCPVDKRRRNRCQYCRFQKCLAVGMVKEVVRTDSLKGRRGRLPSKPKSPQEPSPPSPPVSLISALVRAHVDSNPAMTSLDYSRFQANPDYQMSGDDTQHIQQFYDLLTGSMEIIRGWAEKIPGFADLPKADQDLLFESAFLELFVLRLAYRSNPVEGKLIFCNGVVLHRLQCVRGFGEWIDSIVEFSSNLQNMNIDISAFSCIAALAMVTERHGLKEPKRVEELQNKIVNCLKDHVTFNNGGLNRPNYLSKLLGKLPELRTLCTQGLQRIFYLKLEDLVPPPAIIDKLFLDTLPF

SMILES	interaction with Nurr1-LBD by chemical shift perturbations (Nurr1-LBD [2])	fraction of Nurr1 that binds the ligand covalently (Nurr1-LBD [3])	transcriptional function of Nurr1 (Nurr1 [4])	further results
Sc1ncnc2nc[nH]c12 [6-mercaptopurine]	–	–	–	activation of Nurr1 (Nurr1 [1]): activate Nurr1 through a region in the amino terminus lacking a LBD
CCCCCC(O)/C=C/[C@H]1C=CC(=O)[C@@H]1CCCCCCC(=O)O (stereo partly shown) [PGA1, prostaglandin A1]	direct physical interaction	about 50%	–	–
CCCCCC(O)/C=C/[C@H]1C=CC(=O)[C@@H]1C/C=C\CCCC(=O)O (stereo partly shown) [PGA2, prostaglandin A2]	direct physical interaction	about 50%	–	climbing ability (LRRK2 G2019S Drosophila; 50 μM in medium for 25 days from day 30 post-eclosion, assay on day 55, vehicle-treated mutant flies 9.7%): 36.4%; overall survival rate (LRRK2 G2019S Drosophila; PGA2 treated flies compared to vehicle treated mutant flies, 55 days post-eclosion): improvement to their overall survival rate; apoptosis in HL60 cells (HL60 cells): induce intrinsic apoptosis in HL60 cells
CCN(CC)Cc1cc(Nc2ccnc3cc(Cl)ccc23)ccc1O [amodiaquine]	–	–	enhance the transcriptional function of Nurr1	–
CCN(CC)CCCC(C)Nc1ccnc2cc(Cl)ccc12 (stereo not shown) [chloroquine]	–	–	enhance the transcriptional function of Nurr1	–
